The results in this text go back to ChEMBL document CHEMBL1201862, “PubChem BioAssay data set” (2004).

What all share (assay): NCI anticancer screen, dose series, 48 h
The test system of assay [1] is CCRF-CEM.
The subject of assay [2] is HCC 2998.
The test system of assay [3] is HCT-116.
Assay [4] has as its system HL-60.
Assay [5] has as its system HOP-62.
For assay [6], the system named is K562.
Assay [7] relates to NCI-H23.
Assay [8] relates to NCI-H522.
Assay [9] concerns NCI/ADR-RES.
The subject of assay [10] is OVCAR-3.
For assay [11], the system named is OVCAR-5.
Assay [12] deals with RXF 393.
The subject of assay [13] is SF-268.
For assay [14], the system named is SF-295.
Assay [15] has as its system SK-MEL-5.
Assay [16] has as its system SK-OV-3.
For assay [17], the system named is SNB-19.
Assay [18] concerns SNB-75.
Assay [19] relates to UACC-62.
The test system of assay [20] is A498.

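Five compound concentrations were applied to cells in 96-well plates for 48 hours; endpoints were derived by simple linear interpolation of the resulting dose-response curve. GI50 marks 50% less growth.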 The source made the active and inactive calls. No stated cut-off is given here; in the data, active = GI50 up to about 1.1 µM and inactive = higher.

On to `CCCCCCCC/C=C\CCCCCCCCNc1ccn(C2OC(COP(=O)(O)OC3CC(n4cc(F)c(=O)[nH]c4=O)OC3CO)C(O)C2O)c(=O)n1` (stereo unspecified), for which the GI50 in assay [1] is < 0.0215 µM (active); in assay [2], > 100 µM (inactive); in assay [3] it was 0.329 µM (active); in assay [4] it was 1.25 µM (inactive); in assay [5] it was < 0.0255 µM (active); in [6], 2.52 µM (inactive). The GI50 in assay [7] was 0.433 µM (active); in assay [8] it was > 53.8 µM (inactive); in assay [9] it was 3.36 µM (inactive); in [10], > 87.5 µM (inactive); in [11] it was > 100 µM (inactive); in assay [12], 9.62 µM (inactive). Also, the GI50 in [13] is < 0.0292 µM (active); in [14] it was 0.638 µM (active); in assay [15], 10.4 µM (inactive); in assay [16], 14.6 µM (inactive); in [17], 0.376 µM (active); in [18] it was 1.7 µM (inactive). The GI50 in assay [19] was 0.223 µM (active).
For `Cc1nnc2sc(N/N=C/c3ccccc3)nn12`, the GI50 in assay [20], in assay [1], in assay [3], in assay [5], in [6] and in [7] was > 100 µM (inactive) in each case. Also, the GI50 in assay [8] is > 100 µM (inactive); in assay [9], > 100 µM (inactive); in assay [10], > 100 µM (inactive); in [11], > 100 µM (inactive); in assay [12] it was > 100 µM (inactive); in assay [13], 61.2 µM (inactive). The GI50 was > 100 µM (inactive) in assay [14]; > 100 µM (inactive) in assay [15]; 27.4 µM (inactive) in assay [16]; > 100 µM (inactive) in assay [17]; > 100 µM (inactive) in [18]; 23.5 µM (inactive) in assay [19].
In the case of `N#C/C(=C\c1ccc(Br)cc1)c1nc(-c2cc3ccccc3oc2=O)cs1`, the GI50 was 41.8 µM (inactive) in [1]; 19.6 µM (inactive) in assay [2]; 17.5 µM (inactive) in assay [3]; > 50 µM (inactive) in [4]; 8.73 µM (inactive) in assay [5]; 37.2 µM (inactive) in assay [6]. Besides, the GI50 in assay [8] was 7.98 µM (inactive); in assay [9], 11.9 µM (inactive); in assay [11] it was 31 µM (inactive); in [12], 19.2 µM (inactive); in assay [13] it was 14.5 µM (inactive); in assay [14] it was 18.5 µM (inactive). Also, the GI50 in assay [15] is 21.8 µM (inactive); in [16], 18.9 µM (inactive); in [17], 10.7 µM (inactive); in assay [18], 7.14 µM (inactive); in assay [19], 10.2 µM (inactive).
For the molecule `COc1cc(C2c3[nH]c4ccccc4c3[C@@H](Nc3ccc(F)cc3)[C@H]3COC(=O)N23)cc(OC)c1O` (stereo partly specified), the GI50 in assay [20] is 2.13 µM (inactive); in [1], 0.296 µM (active); in assay [2], 1.58 µM (inactive); in assay [3], 1.89 µM (inactive); in assay [5] it was 1.01 µM (active); in [6], 1.45 µM (inactive). Also, the GI50 in assay [7] was 1.42 µM (inactive); in assay [9], 8.13 µM (inactive); in [10], 1.92 µM (inactive); in [11], 1.79 µM (inactive); in assay [13] it was 1.55 µM (inactive); in [14], 0.794 µM (active). The GI50 is 1.14 µM (inactive) in assay [15]; 1.1 µM (active) in assay [16]; 1.26 µM (inactive) in [17]; 1.69 µM (inactive) in assay [18]; 1.37 µM (inactive) in assay [19].
